According to publication PMC11292009, “Mapping protein binding sites by photoreactive fragment pharmacophores” (Communications Chemistry, 2024):

Tested on: T1, Kras G12D protein / SOS1 exchange domain
T1 construct: Cytoskeleton, Inc. (SOS1 exchange domain only) GE02
Assay: Kras-SOS exchange assay (MANT-GDP)
Type: biochemical
Conditions: for Relative fluorescence intensity: PhP072 500 uM, no irradiation
Method: MANT-GDP loading assay: Kras^G12D protein was first buffer exchanged into low magnesium buffer (20 mM HEPES-NaOH (pH 7.5), 50 mM NaCl, 0.5 mM MgCl2) using a NAP5 column (catalog no.: 17-0583-1, Cytiva). The proteins were then incubated with 20-fold molar excess of N-methylanthraniloyl (MANT)-GDP (catalog no.: 69244, Sigma-Aldrich) in loading buffer (50 mM NaCl, 20 mM HEPES-NaOH [pH 7.5], 0.5 mM MgCl2, 10 mM EDTA, and 1 mM Dithiothreitol (DTT)) in a total volume of 200 μL at 20 °C for 90 min. The reaction was stopped by adding MgCl2 to a final concentration of 10 mM, then incubated at 20 °C for 30 min. The unbound MANT-GDP was removed using the NAP-5 column equilibrated with nucleotide exchange buffer (40 mM HEPES-NaOH (pH 7.5), 50 mM NaCl, 10 mM MgCl2, 2 mM DTT).
MANT-GDP exchange assay: First the MANT-GDP bound Kras G12D protein (in a final 1 μM molar concentration) was preincubated with the inhibitor molecules for 60 min. After the preincubation the samples were exposed to UV light for 10 min with a wavelength of 366 nm. The UV-treated MANT-GDP Kras-inhibitor mix was loaded into a black 384 well microplate. The nucleotide exchange reaction was initiated by adding 100 fold molar excess of GppNHp (catalog no.: G0635, Sigma-Aldrich), a non-hydrolyzable GTP analog and the SOS1 exchange domain (catalog no.: GE02, Cytoskeleton, Inc.) protein in 0.5 μM final concentration. The change in fluorescence intensity was measured every 30 s in room temperature for 60 min on an EnSpire plate reader (PerkinElmer, Inc.). The measured fluorescence values were fitted to a single exponential function by using GraphPad Prism 8 software.

**Q.** What does the source list for `Cc1ncc(CO)c(CNC(=O)CCC2(C)N=N2)c1O` [PhP072, Cc1ncc(CO)c(c1O)CNC(=O)CCC2(C)N=N2]?
**A.** Relative fluorescence intensity (0 sec): 1; Relative fluorescence intensity (30 sec): 1.013; Relative fluorescence intensity (60 sec): 0.9959; Relative fluorescence intensity (90 sec): 0.9972; Relative fluorescence intensity (120 sec): 0.9718; Relative fluorescence intensity (210 sec): 0.9336; Relative fluorescence intensity (240 sec): 0.9413; Relative fluorescence intensity (270 sec): 0.9207; Relative fluorescence intensity (300 sec): 0.9231; Relative fluorescence intensity (330 sec): 0.889; Relative fluorescence intensity (360 sec): 0.9144; Relative fluorescence intensity (390 sec): 0.8755; Relative fluorescence intensity (420 sec): 0.8829; Relative fluorescence intensity (450 sec): 0.8817; Relative fluorescence intensity (480 sec): 0.8573; Relative fluorescence intensity (510 sec): 0.8562; Relative fluorescence intensity (540 sec): 0.8393; Relative fluorescence intensity (570 sec): 0.8479; Relative fluorescence intensity (600 sec): 0.8268; Relative fluorescence intensity (630 sec): 0.8298; Relative fluorescence intensity (660 sec): 0.82; Relative fluorescence intensity (690 sec): 0.8367; Relative fluorescence intensity (720 sec): 0.8123; Relative fluorescence intensity (750 sec): 0.8188; Relative fluorescence intensity (780 sec): 0.7895; Relative fluorescence intensity (810 sec): 0.8173; Relative fluorescence intensity (840 sec): 0.8044; Relative fluorescence intensity (870 sec): 0.8078; Relative fluorescence intensity (900 sec): 0.796; Relative fluorescence intensity (930 sec): 0.7898; Relative fluorescence intensity (960 sec): 0.7738; Relative fluorescence intensity (990 sec): 0.7911; Relative fluorescence intensity (1020 sec): 0.7808; Relative fluorescence intensity (1050 sec): 0.7917; Relative fluorescence intensity (1080 sec): 0.7685; Relative fluorescence intensity (1110 sec): 0.7829; Relative fluorescence intensity (1140 sec): 0.763; Relative fluorescence intensity (1170 sec): 0.7869; Relative fluorescence intensity (1200 sec): 0.7802; Relative fluorescence intensity (1230 sec): 0.7626; Relative fluorescence intensity (1260 sec): 0.7487; Relative fluorescence intensity (1290 sec): 0.7649; Relative fluorescence intensity (1320 sec): 0.7515; Relative fluorescence intensity (1350 sec): 0.7769; Relative fluorescence intensity (1380 sec): 0.7498; Relative fluorescence intensity (1410 sec): 0.7689; Relative fluorescence intensity (1440 sec): 0.7375; Relative fluorescence intensity (1470 sec): 0.7324; Relative fluorescence intensity (1500 sec): 0.7377; Relative fluorescence intensity (1530 sec): 0.7512; Relative fluorescence intensity (1560 sec): 0.7561; Relative fluorescence intensity (1590 sec): 0.7642; Relative fluorescence intensity (1620 sec): 0.7532; Relative fluorescence intensity (1650 sec): 0.7322; Relative fluorescence intensity (1680 sec): 0.7337; Relative fluorescence intensity (1710 sec): 0.7447; Relative fluorescence intensity (1740 sec): 0.7262; Relative fluorescence intensity (1770 sec): 0.7004; Relative fluorescence intensity (1800 sec): 0.7223; Relative fluorescence intensity (1830 sec): 0.7275; Relative fluorescence intensity (1860 sec): 0.7142; Relative fluorescence intensity (1890 sec): 0.7142; Relative fluorescence intensity (1920 sec): 0.7251; Relative fluorescence intensity (1950 sec): 0.7143; Relative fluorescence intensity (1980 sec): 0.7167; Relative fluorescence intensity (2010 sec): 0.7199; Relative fluorescence intensity (2040 sec): 0.7182; Relative fluorescence intensity (2070 sec): 0.7197; Relative fluorescence intensity (2100 sec): 0.7234; Relative fluorescence intensity (2130 sec): 0.7107; Relative fluorescence intensity (2160 sec): 0.709; Relative fluorescence intensity (2190 sec): 0.6857; Relative fluorescence intensity (2220 sec): 0.7212; Relative fluorescence intensity (2250 sec): 0.7309; Relative fluorescence intensity (2280 sec): 0.698; Relative fluorescence intensity (2310 sec): 0.6941; Relative fluorescence intensity (2340 sec): 0.715; Relative fluorescence intensity (2370 sec): 0.7148; Relative fluorescence intensity (2400 sec): 0.6907; Relative fluorescence intensity (2430 sec): 0.6865; Relative fluorescence intensity (2460 sec): 0.6802; Relative fluorescence intensity (2490 sec): 0.7113; Relative fluorescence intensity (2520 sec): 0.7022; Relative fluorescence intensity (2550 sec): 0.6719; Relative fluorescence intensity (2580 sec): 0.6958; Relative fluorescence intensity (2910 sec): 0.6843; Relative fluorescence intensity (2940 sec): 0.6708; Relative fluorescence intensity (2970 sec): 0.6872; Relative fluorescence intensity (3000 sec): 0.6826; Relative fluorescence intensity (3030 sec): 0.6877; Relative fluorescence intensity (3060 sec): 0.6798; Relative fluorescence intensity (3090 sec): 0.6889; Relative fluorescence intensity (3120 sec): 0.6845; Relative fluorescence intensity (3150 sec): 0.6654; Relative fluorescence intensity (3180 sec): 0.6759; Relative fluorescence intensity (3210 sec): 0.6861; Relative fluorescence intensity (3240 sec): 0.6538; Relative fluorescence intensity (3270 sec): 0.6954; Relative fluorescence intensity (3300 sec): 0.6785; Relative fluorescence intensity (3330 sec): 0.6776; normalized signal, Kras-SOS exchange (Figure 4c PhP072 irradiation) (Php072 500 uM, irradiation, time 0 sec): 1
